Laboratory results taken from patent publication US9062074B2, “(9E)-15-(2-pyrrolidin-1-yl-ethoxy)-7,12,25-trioxa-19,21,24-triaza-tetracyclo[18.3.1.1(2.5).1(14,18)]hexacosa-1(24),2,4,9,14,16,18(26),20,22-nonaene citrate salt” (CTI BioPharma Corp., priority 2009, dated 2015).

Experiment: Gravimetric Vapour Sorption (GVS)
Format: physicochemical
Experimental: Sorption isotherms were obtained using a SMS DVS Intrinsic moisture sorption analyser, controlled by SMS Analysis Suite software. The sample temperature was maintained at 25° C. by the instrument controls. The humidity was controlled by mixing streams of dry and wet nitrogen, with a total flow rate of 200 ml.min^−1. The relative humidity was measured by a calibrated Rotronic probe (dynamic range of 1.0-100% RH), located near the sample. The weight change, (mass relaxation) of the sample as a function of % RH was constantly monitored by the microbalance (accuracy ±0.005 mg). Typically 5-20 mg of sample was placed in a tared mesh stainless steel basket under ambient conditions. The sample was loaded and unloaded at 40% RH and 25° C. (typical room conditions). A moisture sorption isotherm was performed as outlined below (2 scans giving 1 complete cycle). The standard isotherm was performed at 25° C. at 10% RH intervals over a 0.5-90% RH range.
The hygroscopicity of the citrate was investigated by carrying out a gravimetric vapour sorption experiment on Batch 4. A sample of approximately 20 mg was held at 25° C. whilst the humidity of its environment was changed through two complete cycles. […] The sample takes longer to reach equilibrium in the early stages of the experiment. This may be due to displacement of residual solvent.

Gravimetric Vapour Sorption Max weight change: < 1%
Sorp Mass Change (Cycle 1 adsorption, Target RH 40.0%, 25° C.): −0.1186%
Sorp Mass Change (Cycle 1 adsorption, Target RH 50.0%, 25° C.): −0.0817%
Sorp Mass Change (Cycle 1 adsorption, Target RH 60.0%, 25° C.): 0.0329%
Sorp Mass Change (Cycle 1 adsorption, Target RH 70.0%, 25° C.): 0.1086%
Sorp Mass Change (Cycle 1 adsorption, Target RH 80.0%, 25° C.): 0.2342%
Sorp Mass Change (Cycle 1 adsorption, Target RH 90.0%, 25° C.): 0.5631%
Sorp Mass Change (Cycle 1 desorption, Target RH 0.0%, 25° C.): −0.2816%
Sorp Mass Change (Cycle 1 desorption, Target RH 10.0%, 25° C.): −0.2093%
Sorp Mass Change (Cycle 1 desorption, Target RH 20.0%, 25° C.): −0.1545%
Sorp Mass Change (Cycle 1 desorption, Target RH 30.0%, 25° C.): −0.1076%
Sorp Mass Change (Cycle 1 desorption, Target RH 40.0%, 25° C.): −0.0548%
Sorp Mass Change (Cycle 1 desorption, Target RH 50.0%, 25° C.): 0.0100%
Sorp Mass Change (Cycle 1 desorption, Target RH 60.0%, 25° C.): 0.0743%
Sorp Mass Change (Cycle 1 desorption, Target RH 70.0%, 25° C.): 0.1610%
Sorp Mass Change (Cycle 1 desorption, Target RH 80.0%, 25° C.): 0.2905%
Sorp Mass Change (Cycle 1 desorption, Target RH 90.0%, 25° C.): 0.5631%
Sorp Mass Change (Cycle 1 readsorption, Target RH 0.0%, 25° C.): −0.2816%
Sorp Mass Change (Cycle 1 readsorption, Target RH 10.0%, 25° C.): −0.2138%
Sorp Mass Change (Cycle 1 readsorption, Target RH 20.0%, 25° C.): −0.1620%
Sorp Mass Change (Cycle 1 readsorption, Target RH 30.0%, 25° C.): −0.1146%
Sorp Mass Change (Cycle 1 readsorption, Target RH 40.0%, 25° C.): −0.0643%
Sorp Mass Change (Cycle 2 desorption (first segment, RH 40 to 90), Target RH 40.0%, 25° C.): −0.0643%
Sorp Mass Change (Cycle 2 desorption (first segment, RH 40 to 90), Target RH 50.0%, 25° C.): −0.0100%
Sorp Mass Change (Cycle 2 desorption (first segment, RH 40 to 90), Target RH 60.0%, 25° C.): 0.0513%
Sorp Mass Change (Cycle 2 desorption (first segment, RH 40 to 90), Target RH 70.0%, 25° C.): 0.1281%
Sorp Mass Change (Cycle 2 desorption (first segment, RH 40 to 90), Target RH 80.0%, 25° C.): 0.2567%
Sorp Mass Change (Cycle 2 desorption (first segment, RH 40 to 90), Target RH 90.0%, 25° C.): 0.5397%
Sorp Mass Change (Cycle 2 desorption (second segment, RH 90 to 0), Target RH 0.0%, 25° C.): −0.2836%
Sorp Mass Change (Cycle 2 desorption (second segment, RH 90 to 0), Target RH 10.0%, 25° C.): −0.2093%
Sorp Mass Change (Cycle 2 desorption (second segment, RH 90 to 0), Target RH 20.0%, 25° C.): −0.1565%
Sorp Mass Change (Cycle 2 desorption (second segment, RH 90 to 0), Target RH 30.0%, 25° C.): −0.1032%
Sorp Mass Change (Cycle 2 desorption (second segment, RH 90 to 0), Target RH 40.0%, 25° C.): −0.0528%
Sorp Mass Change (Cycle 2 desorption (second segment, RH 90 to 0), Target RH 50.0%, 25° C.): 0.0045%
Sorp Mass Change (Cycle 2 desorption (second segment, RH 90 to 0), Target RH 60.0%, 25° C.): 0.0738%
Sorp Mass Change (Cycle 2 desorption (second segment, RH 90 to 0), Target RH 70.0%, 25° C.): 0.1535%
Sorp Mass Change (Cycle 2 desorption (second segment, RH 90 to 0), Target RH 80.0%, 25° C.): 0.2771%
Sorp Mass Change (Cycle 2 desorption (second segment, RH 90 to 0), Target RH 90.0%, 25° C.): 0.5397%
Sorp Mass Change (Cycle 2 readsorption, Target RH 0.0%, 25° C.): −0.2863%
Sorp Mass Change (Cycle 2 readsorption, Target RH 10.0%, 25° C.): −0.2168%
Sorp Mass Change (Cycle 2 readsorption, Target RH 20.0%, 25° C.): −0.1630%
Sorp Mass Change (Cycle 2 readsorption, Target RH 30.0%, 25° C.): −0.1116%
Sorp Mass Change (Cycle 2 readsorption, Target RH 40.0%, 25° C.): −0.0653%
water taken up (isotherm plot) (between 40% RH and 90% RH, 25° C.): < 0.6%
phase change after GVS experiment (XRPD) (sample retrieved at end of GVS): no overall phase change
Compound: C1=C2COC/C=C/COCc3cc(ccc3OCCN3CCCC3)Nc3nccc(n3)C(=C1)O2 [Batch 4]
